# Results published in patent US10760110B2, “Antibiotic testing and screening system” (priority 2017, dated 2020).
# Where two headings read alike, the source gives them in different places.
# Test system: K. pneumoniae NVT1001 strains with ESBL or AmpC β-lactamase plasmids
# Assay: Etest MIC of β-lactams, OmpK35/36 loss, ΔramR and/or extended-spectrum β-lactamase and AmpC β-lactamase (Table 8)
# Format: cell-based, Klebsiella pneumoniae
# Details: Klebsiella pneumoniae
# Method: DNA fragments of the resistance genes along with their flanking regions were amplified from clinical plasmids via PCR with specific primer pairs. The resulting PCR fragments were digested and then cloned into the plasmid pACYC177 or pACYC184. The resulting plasmids were then transformed into K. pneumoniae strain NVT1001 via electroporation. The recombinant bacteria were plated onto LB agar plates containing kanamycin (50 mg/L) or chloramphenicol (50 mg/L), and the presence of the cloned gene was confirmed via PCR and DNA sequencing.
# The MICs of antibiotics were determined using the Etest (Biodisk AB, Sweden) according to the manufacturer's instructions. The MICs from the Etest, which fall between standard two-fold dilutions, were rounded up to the next highest two-fold value. The MICs of ceftazidime and cefotaxime against K. pneumoniae NVT1001 harbouring the pACYC177 plasmid with blaOXA-48 were further determined using a broth microdilution test according to the recommendations of the CLSI,^25 and the results were interpreted according to the breakpoints established by the CLSI in 2017.^25 Meanwhile, due to the lack of CLSI breakpoints in 2016 and 2017, the results for cephalothin were interpreted according to the breakpoints established by the CLSI in 2015,^26 and the results for moxifloxacin were interpreted according to the breakpoints established by the EUCAST in 2017.^27
# [1] = CMY-2 on pACYC177, WT (NVT1001), read-out: MIC
# [2] = CMY-2 on pACYC177, Δ35 (ΔompK35 mutant)
# [3] = CMY-2 on pACYC177, Δ35/36 (ΔompK35/36 mutant)
# [4] = CMY-2 on pACYC177, Δ36 (ΔompK36 mutant)
# [5] = CMY-2 on pACYC177, ΔramR mutant
# [6] = CMY-2 on pACYC177, ΔramRΔ35 (ΔramRΔompK35 mutant)
# [7] = CMY-2 on pACYC177, ΔramRΔ35/36 (ΔramRΔompK35/36 mutant)
# [8] = CMY-2 on pACYC177, ΔramRΔ36 (ΔramRΔompK36 mutant)
# [9] = CTX-M-14 on pACYC177, WT (NVT1001), read-out: MIC
# [10] = CTX-M-14 on pACYC177, Δ35 (ΔompK35 mutant)
# [11] = CTX-M-14 on pACYC177, Δ35/36 (ΔompK35/36 mutant)
# [12] = CTX-M-14 on pACYC177, Δ36 (ΔompK36 mutant)
# [13] = CTX-M-14 on pACYC177, ΔramR mutant
# [14] = CTX-M-14 on pACYC177, ΔramRΔ35 (ΔramRΔompK35 mutant)
# [15] = CTX-M-14 on pACYC177, ΔramRΔ35/36 (ΔramRΔompK35/36 mutant)
# [16] = CTX-M-14 on pACYC177, ΔramRΔ36 (ΔramRΔompK36 mutant)
# [17] = CTX-M-15 on pACYC177, WT (NVT1001), read-out: MIC
# [18] = CTX-M-15 on pACYC177, Δ35 (ΔompK35 mutant)
# [19] = CTX-M-15 on pACYC177, Δ35/36 (ΔompK35/36 mutant)
# [20] = CTX-M-15 on pACYC177, Δ36 (ΔompK36 mutant)
# [21] = CTX-M-15 on pACYC177, ΔramR mutant
# [22] = CTX-M-15 on pACYC177, ΔramRΔ35 (ΔramRΔompK35 mutant)
# [23] = CTX-M-15 on pACYC177, ΔramRΔ35/36 (ΔramRΔompK35/36 mutant)
# [24] = CTX-M-15 on pACYC177, ΔramRΔ36 (ΔramRΔompK36 mutant)
# [25] = DHA-1-AmpR on pACYC177, WT (NVT1001), read-out: MIC
# [26] = DHA-1-AmpR on pACYC177, Δ35 (ΔompK35 mutant)
# [27] = DHA-1-AmpR on pACYC177, Δ35/36 (ΔompK35/36 mutant)
# [28] = DHA-1-AmpR on pACYC177, Δ36 (ΔompK36 mutant)
# [29] = DHA-1-AmpR on pACYC177, ΔramR mutant
# [30] = DHA-1-AmpR on pACYC177, ΔramRΔ35 (ΔramRΔompK35 mutant)
# [31] = DHA-1-AmpR on pACYC177, ΔramRΔ35/36 (ΔramRΔompK35/36 mutant)
# [32] = DHA-1-AmpR on pACYC177, ΔramRΔ36 (ΔramRΔompK36 mutant)
# [33] = SHV-12 on pACYC177, WT (NVT1001), read-out: MIC
# [34] = SHV-12 on pACYC177, Δ35 (ΔompK35 mutant)
# [35] = SHV-12 on pACYC177, Δ35/36 (ΔompK35/36 mutant)
# [36] = SHV-12 on pACYC177, Δ36 (ΔompK36 mutant)
# [37] = SHV-12 on pACYC177, ΔramR mutant
# [38] = SHV-12 on pACYC177, ΔramRΔ35 (ΔramRΔompK35 mutant)
# [39] = SHV-12 on pACYC177, ΔramRΔ35/36 (ΔramRΔompK35/36 mutant)
# [40] = SHV-12 on pACYC177, ΔramRΔ36 (ΔramRΔompK36 mutant)
# [41] = no supplemental plasmid, WT (NVT1001), read-out: MIC
# [42] = no supplemental plasmid, Δ35 (ΔompK35 mutant)
# [43] = no supplemental plasmid, Δ35/36 (ΔompK35/36 mutant)
# [44] = no supplemental plasmid, Δ36 (ΔompK36 mutant)
# [45] = no supplemental plasmid, ΔramR mutant
# [46] = no supplemental plasmid, ΔramRΔ35 (ΔramRΔompK35 mutant)
# [47] = no supplemental plasmid, ΔramRΔ35/36 (ΔramRΔompK35/36 mutant)
# [48] = no supplemental plasmid, ΔramRΔ36 (ΔramRΔompK36 mutant)
structure (smiles),measurement,setting,value
CC(C)(O/N=C(\C(=O)N[C@@H]1C(=O)N2C(C(=O)[O-])=C(C[n+]3ccccc3)CS[C@H]12)c1csc(N)n1)C(=O)O [Ceftazidime],MIC,[1],> 256 µg/mL
same,MIC,[2],> 256 µg/mL
same,MIC,[3],> 256 µg/mL
same,MIC,[4],> 256 µg/mL
same,MIC,[5],> 256 µg/mL
same,MIC,[6],> 256 µg/mL
same,MIC,[7],> 256 µg/mL
same,MIC,[8],> 256 µg/mL
same,MIC,[9],1 µg/mL
same,MIC,[10],4 µg/mL
same,MIC,[11],8 µg/mL
same,MIC,[12],2 µg/mL
same,MIC,[13],8 µg/mL
same,MIC,[14],8 µg/mL
same,MIC,[15],16 µg/mL
same,MIC,[16],8 µg/mL
same,MIC,[17],64 µg/mL
same,MIC,[18],> 256 µg/mL
same,MIC,[19],> 256 µg/mL
same,MIC,[20],64 µg/mL
same,MIC,[21],256 µg/mL
same,MIC,[22],> 256 µg/mL
same,MIC,[23],> 256 µg/mL
same,MIC,[24],> 256 µg/mL
same,MIC,[25],16 µg/mL
same,MIC,[26],128 µg/mL
same,MIC,[27],> 256 µg/mL
same,MIC,[28],32 µg/mL
same,MIC,[29],64 µg/mL
same,MIC,[30],64 µg/mL
same,MIC,[31],128 µg/mL
same,MIC,[32],64 µg/mL
same,MIC,[33],64 µg/mL
same,MIC,[34],> 256 µg/mL
same,MIC,[35],> 256 µg/mL
same,MIC,[36],128 µg/mL
same,MIC,[37],> 256 µg/mL
same,MIC,[38],> 256 µg/mL
same,MIC,[39],> 256 µg/mL
same,MIC,[40],> 256 µg/mL
same,MIC,[41],0.25 µg/mL
same,MIC,[42],0.5 µg/mL
same,MIC,[43],1 µg/mL
same,MIC,[44],0.5 µg/mL
same,MIC,[45],2 µg/mL
same,MIC,[46],2 µg/mL
same,MIC,[47],2 µg/mL
same,MIC,[48],2 µg/mL
CO/N=C(\C(=O)N[C@@H]1C(=O)N2C(C(=O)O)=C(COC(N)=O)CS[C@H]12)c1ccco1 [Cefuroxime],MIC,[1],256 µg/mL
same,MIC,[2],256 µg/mL
same,MIC,[3],> 256 µg/mL
same,MIC,[4],> 256 µg/mL
same,MIC,[5],> 256 µg/mL
same,MIC,[6],> 256 µg/mL
same,MIC,[7],> 256 µg/mL
same,MIC,[8],> 256 µg/mL
same,MIC,[9],> 256 µg/mL
same,MIC,[10],> 256 µg/mL
same,MIC,[11],> 256 µg/mL
same,MIC,[12],> 256 µg/mL
same,MIC,[13],> 256 µg/mL
same,MIC,[14],> 256 µg/mL
same,MIC,[15],> 256 µg/mL
same,MIC,[16],> 256 µg/mL
same,MIC,[17],> 256 µg/mL
same,MIC,[18],> 256 µg/mL
same,MIC,[19],> 256 µg/mL
same,MIC,[20],> 256 µg/mL
same,MIC,[21],> 256 µg/mL
same,MIC,[22],> 256 µg/mL
same,MIC,[23],> 256 µg/mL
same,MIC,[24],> 256 µg/mL
same,MIC,[25],> 256 µg/mL
same,MIC,[26],> 256 µg/mL
same,MIC,[27],> 256 µg/mL
same,MIC,[28],> 256 µg/mL
same,MIC,[29],> 256 µg/mL
same,MIC,[30],> 256 µg/mL
same,MIC,[31],> 256 µg/mL
same,MIC,[32],> 256 µg/mL
same,MIC,[33],64 µg/mL
same,MIC,[34],64 µg/mL
same,MIC,[35],> 256 µg/mL
same,MIC,[36],128 µg/mL
same,MIC,[37],256 µg/mL
same,MIC,[38],128 µg/mL
same,MIC,[39],> 256 µg/mL
same,MIC,[40],> 256 µg/mL
same,MIC,[41],4 µg/mL
same,MIC,[42],8 µg/mL
same,MIC,[43],32 µg/mL
same,MIC,[44],16 µg/mL
same,MIC,[45],32 µg/mL
same,MIC,[46],64 µg/mL
same,MIC,[47],128 µg/mL
same,MIC,[48],> 256 µg/mL
